These results are taken from patent EP0715850A1, “Use of proline and/or derivatives as an antihepatitis agent” (RESEARCH DEVELOPMENT CORPORATION OF JAPAN, priority 1994, dated 1996).

The test system of assay [1] is rats suffering galactosamine induced fulminant hepatitis. The settings on record: blood sampled 36 hours after galactosamine; Pre-Pro and Post-Pro groups, proline 2.0 g/kg oral. The protocol:
The effect of administration of proline on transamylase activity in blood of rats suffering galactosamine induced fulminant hepatitis was investigated.
Blood was sampled from each of the four groups of rats (GalN, Control, Pre-Pro, and Post-Pro) of Example 1, upon the lapse of 36 hours after administration of galactosamine, and activity of transamylase in blood (glutamic-oxaloacetic acid transamylase: GOT; glutamic-pyruvic acid transamylase: GPT) was measured in accordance with the conventional method.

Assay [2] has as its system LEC rat which spontaneously develops hepatitis, cirrhosis and hepatoma. The experiment in a line: death rate and jaundice of LEC rats that spontaneously develop hepatitis. Type of assay: in vivo. The text has this: An effect of proline was investigated by using LEC rat which spontaneously develops hepatitis, cirrhosis and hepatoma.
Weanlings of LEC rats (seven weeks of age: food deprived for one week before testing) were divided into 2 groups, and copper deficiency feed and normal feed were presented to the groups, respectively. The rats of 2 groups were further divided into 3 groups: group of free drinking of proline solution (0.2M of proline in distilled water); group of oral administration of proline solution (135-150 mg of proline/day); and group of free drinking of water. Death rate of 6 groups of rats were measured. A relationship between the amount of proline solution consumed by rats and the degree of jaundice of the rats was also measured.

Assay [3] concerns rats suffering galactosamine induced fulminant hepatitis. Conditions: ten days after galactosamine.
Description: Because of the similarity of pathological findings to those of human hepatitis and a large number of patients, experiments were carried out on the effect of administration of proline on the survival rate of rats suffering galactosamine induced fulminant hepatitis commonly used as a hepatitis model.
Fisher strain rats (male; eight weeks of age; body weight: 160 to 190 g) were divided into four groups each comprising nine rats. Rats of three groups were administered with 30% galactosamine hydrochloride-saline through intraperitoneal administration (1.4 g/kg body weight) to form fulminant hepatitis models (GalN), and only saline was administered to the remaining group to form a control group.
For 12 hours before and after administration of galactosamine, the rats were fasted, and from 12 hours prior to administration of galactosamine through six hours thereafter, the rats were caused to freely ingest 10% glucose aqueous solution.

Like-named read-outs stand apart in the source and are kept apart here.

As to `O=C(O)[C@@H]1CCCN1` [Proline, proline], the “increase in the concentration of GOT in blood” value in assay [1] is on record as “largely inhibited”. Moreover, the “increase in the concentration of GPT in blood” value in assay [1] was “largely inhibited”. Besides, the degree of jaundice entry in assay [2] (LEC rats ingesting proline solution, Fig. 3) was “diminished the jaundice”. For the same compound, the Death rate in assay [2] (copper deficiency feed, free drinking of proline solution (0.2M in distilled water)) is reported as 0%; in assay [2] (copper deficiency feed, oral administration of proline solution (135-150 mg of proline/day)) it was 0%; in assay [2] (normal feed, free drinking of proline solution (0.2M in distilled water)), 85%; in assay [2] (normal feed, oral administration of proline solution (135-150 mg of proline/day)), 57%. Further, the survival rate in assay [3] (post-administration (Post-Pro) group: proline 2.0 g/kg oral at 6, 12 and 24 hours after galactosamine (1.4 g/kg i.p.), 7/9) is 78%; in assay [3] (pre-administration (Pre-Pro) group: proline 2.0 g/kg oral one hour prior to and 12 and 24 hours after galactosamine (1.4 g/kg i.p.), 9/9) it was 100%.
